How the values were obtained:
[1] = system: cyclin D1, cyclin D2, cyclin D3; assay: Immunoblot of cyclin D protein levels in Calu-1 (and BT-549) cells; format: cell-based; conditions: 16 hours; for decrease of degradation potency versus corresponding active compound: Calu-1 cells, CPD-042 vs CPD-002, CPD-049 vs CPD-031
Procedure: Specific exemplary heterobifunctional compounds were characterized in Calu-1, BT-549 and other cells. Cells that express cyclin D1-3 and CDK4/6 proteins were treated with heterobifunctional compounds disclosed herein at indicated concentrations for 16 hours. Cells were collected, lysed and subject to immunoblotting using an antibody specific to cyclin D1, cyclin D2, cyclin D3, CDK4, CDK6 or phosphorylated R^b proteins. Tubulin or GAPDH was used as the loading control. DMSO treatment was used as the negative control.
In a time-course study, Calu-1 cells were treated with 500 nM CPD-002, or 100 nM CPD-031 for indicated period of time prior to immunoblotting (FIG. 4A-4B).
The heterobifunctional compound-mediated degradation was dependent on the ubiquitin-proteasome system and cullin E3 ligase. […] In addition, DDB1 E3 ligase was critical for the degrader-induced cyclin D downregulation. Depletion of DDB1 using CRISPR-Cas9 technology attenuated the cyclin D degradation induced by CPD-031 (FIG. 5C).
(§1) To verify that heterobifunctional compound-mediated degradation is dependent on the binding to CDK4-cyclin D complex, we designed three negative control compounds, CPD-042, CPD-049 and CPD-380, which are derived from CPD-002 CPD-031 and CPD-343, respectively. These three control compounds bear the same DDB1 ligand and linker as their corresponding active heterobifunctional compounds but with modified warheads to impair the binding of the control compounds to CDK4. […] However, the binding to CDK4 is not sufficient for cyclin D degradation. Two cereblon (CRBN)-recruiting reference heterobifunctional compounds, CP-10 (Su, J Med Chem, 2019; CAS No.: 2366268-80-4) and BSJ-03-123 (Brand, Cell Chem Biol, 2019; CAS No.: 2361493-16-3) were analyzed in Calu-1 cells.

[2] = system: Calu-1 cells; assay: Anti-viability / anti-proliferation in Calu-1 cells; format: cell-based; conditions: CPD-042 vs CPD-002, CPD-049 vs CPD-031
Procedure: FIG. 6 show immunoblots of cyclin D1, cyclin D2, cyclin D3, and CDK4 proteins expressed by Calu-1 cells after treatment with a dose range of control compounds CPD-042 (A), or CPD-049 (B) for 16 hours, and anti-viability curves of Calu-1 cells in the presence of CPD-002 and CPD-042 (C), or CPD-031 and CPD-049 (D).
FIG. 11A-11B show immunoblots of cyclin D1, CDK4, and CDK6 proteins expressed by Calu-1 cells after treatment with a dose range of heterobifunctional reference compound CP-10, or BSJ-03-123 for 8 hours (FIG. 11A), and anti-viability curves of Calu-1 cells in the presence of CP-10, or BSJ-03-123 for 3 days (FIG. 11B).
as §1

[3] = target: T1, DDB1 (Homo sapiens, UniProt Q16531, D705G/DEL396-460/DEL463-701/I704S/T703N); assay: SPR binding assay to immobilized DDB1ΔBPB; conditions: binding affinities to DDB1
T1 construct: His6 (N, cleaved yes); TEV protease cleavage site (N, cleaved yes); made in house; host or cells: SF9 insect cells, Bac-to-Bac baculovirus, pFastBacHTB vector
T1 sequence (Q16531 other isoform, or with tags, fused parts or gaps DEL396-460/DEL463-701/T703N/I704S/D705G): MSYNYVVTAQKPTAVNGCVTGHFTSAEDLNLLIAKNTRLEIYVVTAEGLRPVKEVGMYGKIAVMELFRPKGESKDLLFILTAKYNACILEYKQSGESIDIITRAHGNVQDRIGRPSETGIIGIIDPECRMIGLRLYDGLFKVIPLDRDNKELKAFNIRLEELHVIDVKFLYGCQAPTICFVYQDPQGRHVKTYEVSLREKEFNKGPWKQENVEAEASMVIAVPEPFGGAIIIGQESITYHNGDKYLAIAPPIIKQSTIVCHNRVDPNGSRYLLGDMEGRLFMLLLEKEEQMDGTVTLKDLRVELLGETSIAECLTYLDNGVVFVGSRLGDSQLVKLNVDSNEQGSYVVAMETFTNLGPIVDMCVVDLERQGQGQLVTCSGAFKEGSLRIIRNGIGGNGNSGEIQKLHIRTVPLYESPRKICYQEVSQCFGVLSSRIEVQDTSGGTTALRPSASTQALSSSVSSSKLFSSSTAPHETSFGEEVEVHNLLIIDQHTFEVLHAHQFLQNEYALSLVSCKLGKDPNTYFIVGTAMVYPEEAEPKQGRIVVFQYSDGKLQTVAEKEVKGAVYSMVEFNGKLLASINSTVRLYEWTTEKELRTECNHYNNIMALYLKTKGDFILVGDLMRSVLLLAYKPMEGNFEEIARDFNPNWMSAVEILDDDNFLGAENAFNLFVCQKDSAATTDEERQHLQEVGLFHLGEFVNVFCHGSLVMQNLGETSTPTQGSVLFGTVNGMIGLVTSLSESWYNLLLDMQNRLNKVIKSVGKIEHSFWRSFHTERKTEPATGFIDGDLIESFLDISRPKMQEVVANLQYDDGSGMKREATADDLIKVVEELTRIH
Procedure: The binding affinities of heterobifunctional compounds to DDB1 were determined by SPR assay (FIG. 1A-1B). Purified DDB1ΔBPB proteins were immobilized on a CM5 sensor chip, and a dose range of compound solutions were injected in multi-cycle kinetic format. Data were fit to a steady state model to provide equivalent dissociation constants (Kd).
Human DDB1ΔBPB (UniProt: Q16531. BPB domain, aa 396 to 705, is replaced with a GNGNSG linker) coding sequences were cloned into pFastBacHTB vector and were expressed in SF9 cells using Bac-to-Bac baculovirus expression system (Thermo Fisher Scientific). The expression constructs include an N-terminal His6-tag to facilitate the purification, and a TEV protease cleavage site in between. DDB1ΔBPB proteins were obtained from supernatant of cell lysates and purified through sequential application of Ni affinity column (Ni-NTA column, Bio-Rad) and size-exclusion column (Superdex 200 16/600GL column, GE Healthcare) chromatography. Protein tags were cleaved off by TEV protease, and the resulting untagged proteins were further purified by Ni affinity column. Purified proteins were verified by immunoblotting, analytic SEC, and LC-MS.
SPR studies were performed on a Biacore X100 plus instrument (GE Healthcare). Immobilization of purified DDB1ΔBPB was carried out at 25° C. using a CM5 sensor chip. The surface was pre-equilibrated in HBS-EP running buffer (10 mM HEPES, pH7.4, 150 mM NaCl, 3 mM EDTA, 0.05% P20), before it was activated with EDC/NHS. DDB1ΔBPB proteins were immobilized by amine coupling to a density of 10,000-12,000 resonance units (RUs) on flow cell FC2, whereas flow cell FC1 was used as reference. Both protein immobilized and reference surfaces were deactivated with 1M ethanolamine. All interaction experiments were performed at 25° C. Test compounds were prepared and serially diluted in HBS-EP running buffer containing final 5% DMSO (6-point two-fold serial dilution, 100 μM-3.125 μM final concentration of compounds). Compound solutions were injected individually in multi-cycle kinetic format without regeneration (flow rate 30 μl/min, association time 120 s, dissociation time 120 s). Sensorgrams from reference surfaces and blank injections were subtracted from the raw data (double-referencing) and the data was solvent-corrected prior to analysis. All data were fit to steady state affinity model using Biacore Evaluation Software to provide equivalent dissociation constants (Kd).

[4] = system: cyclin D1; assay: Cyclin D1 percentage degradation in Calu-1 cells (immunoblotting); format: cell-based; conditions: 200 nM, 16 hours
Method in brief: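 Cells were rinsed once in cold PBS and lysed in cold RIPA buffer containing protease and phosphatase inhibitors, with gentle agitation at 4° C. for 30 min. Lysates were spun at 13,000 rpm for 10 min at 4° C., protein was measured by BCA, and samples were boiled in Laemmli buffer at 99° C. for 5 min before SDS-PAGE immunoblotting.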

[5] = target: T2, CDK4 (Homo sapiens, UniProt P11802); assay: CDK4 percentage degradation in Calu-1 cells (immunoblotting); format: cell-based; conditions: Calu-1 cells, 200 nM, 16 hours; read-out: CDK4 Degradation (200 nM)
T2 construct: endogenous in cells; host or cells: Calu-1
T2 sequence (P11802 2-303 limits assumed): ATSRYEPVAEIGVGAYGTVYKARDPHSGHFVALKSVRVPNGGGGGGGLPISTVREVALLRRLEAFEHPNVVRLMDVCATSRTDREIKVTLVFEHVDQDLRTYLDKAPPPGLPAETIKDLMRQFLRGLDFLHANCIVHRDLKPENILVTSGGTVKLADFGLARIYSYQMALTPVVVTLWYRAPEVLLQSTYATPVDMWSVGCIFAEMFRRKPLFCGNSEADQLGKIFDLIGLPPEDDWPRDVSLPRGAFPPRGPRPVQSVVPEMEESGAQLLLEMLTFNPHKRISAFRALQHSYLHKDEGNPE
T2 sequence (P24385 whole entry partner): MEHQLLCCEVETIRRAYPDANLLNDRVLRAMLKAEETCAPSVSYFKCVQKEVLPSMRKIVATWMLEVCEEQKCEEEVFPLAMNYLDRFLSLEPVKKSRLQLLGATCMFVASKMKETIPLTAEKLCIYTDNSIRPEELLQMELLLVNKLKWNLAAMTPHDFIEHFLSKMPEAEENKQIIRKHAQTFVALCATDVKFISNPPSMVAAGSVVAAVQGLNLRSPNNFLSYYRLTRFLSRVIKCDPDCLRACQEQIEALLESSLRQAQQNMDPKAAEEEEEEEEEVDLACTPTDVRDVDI
T2 sequence (Q16531 2-1140 limits assumed, further chain): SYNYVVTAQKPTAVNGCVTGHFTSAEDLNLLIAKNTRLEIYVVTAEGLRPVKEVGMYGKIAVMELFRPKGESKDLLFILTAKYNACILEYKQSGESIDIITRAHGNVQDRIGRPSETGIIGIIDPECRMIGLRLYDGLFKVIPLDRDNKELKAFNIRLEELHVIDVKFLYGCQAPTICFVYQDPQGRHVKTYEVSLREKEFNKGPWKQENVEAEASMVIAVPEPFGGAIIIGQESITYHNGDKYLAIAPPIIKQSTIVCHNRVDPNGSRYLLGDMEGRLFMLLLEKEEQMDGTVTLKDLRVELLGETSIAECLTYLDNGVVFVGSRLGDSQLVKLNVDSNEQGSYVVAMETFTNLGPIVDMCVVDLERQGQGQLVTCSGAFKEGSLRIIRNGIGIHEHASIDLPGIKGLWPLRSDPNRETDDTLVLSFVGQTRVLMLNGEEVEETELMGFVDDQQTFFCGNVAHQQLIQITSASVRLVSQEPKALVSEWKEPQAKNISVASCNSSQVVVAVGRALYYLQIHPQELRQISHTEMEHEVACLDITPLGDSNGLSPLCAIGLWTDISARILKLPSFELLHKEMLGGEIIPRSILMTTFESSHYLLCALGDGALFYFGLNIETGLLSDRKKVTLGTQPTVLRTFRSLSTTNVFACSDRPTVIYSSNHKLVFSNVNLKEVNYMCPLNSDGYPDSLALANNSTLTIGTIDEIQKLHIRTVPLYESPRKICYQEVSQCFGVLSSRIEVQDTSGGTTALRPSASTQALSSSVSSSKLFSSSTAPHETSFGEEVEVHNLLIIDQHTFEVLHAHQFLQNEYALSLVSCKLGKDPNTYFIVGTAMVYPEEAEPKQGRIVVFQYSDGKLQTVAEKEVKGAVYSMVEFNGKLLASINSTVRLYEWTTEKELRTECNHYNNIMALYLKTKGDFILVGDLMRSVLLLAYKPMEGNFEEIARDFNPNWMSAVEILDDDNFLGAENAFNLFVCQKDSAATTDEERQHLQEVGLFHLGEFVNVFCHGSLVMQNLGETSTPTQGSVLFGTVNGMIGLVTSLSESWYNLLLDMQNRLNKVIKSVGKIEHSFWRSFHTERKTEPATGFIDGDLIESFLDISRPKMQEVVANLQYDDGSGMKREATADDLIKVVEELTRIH
Method in brief: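 Cultured cells were rinsed once in cold PBS and lysed in cold RIPA buffer containing protease and phosphatase inhibitors, with gentle agitation at 4° C. for 30 min. Lysates were centrifuged at 13,000 rpm for 10 min at 4° C., and protein was quantified by BCA. Samples were then separated by SDS-PAGE, detected with ECL, and the CDK4 bands quantified in Image Lab.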

[6] = system: Calu-1; assay: Cell viability assay, Calu-1; format: cell-based; conditions: Calu-1 cells, 96-well plates, serial dilution, 3 days
Procedure: Cells were treated with CDK4/6 inhibitors palbociclib, ribociclib, or abemaciclib, or heterobifunctional compounds CPD-002 or CPD-031 following a 9-point serial dilution for 3 days.
Cells were seeded at a density of 2,000-5,000 cells per well in 96-well assay plates and treated with test compounds following a 10-point serial dilution for 3-6 days. Cell viability was determined using the CellTiter-Lumi assay kit according to the manufacturer's instructions. The dose-response curves were determined and IC50 values were calculated using the GraphPad Prism software following a nonlinear regression (least squares fit) method. Data presented was mean±standard deviation (SD) unless otherwise indicated.

[7] = system: cyclin D1, cyclin D2, cyclin D3, CDK4 and CDK6; assay: Immunoblotting of cyclin D and CDK4/6 protein levels in Calu-1 cells; format: cell-based; conditions: for degradation potencies compared with corresponding active heterobifunctional compounds: dose range, negative control compounds
Procedure: (§2) Calu-1 (FIG. 2A) or BT-549 (FIG. 2B) cells were treated with CPD-002, CPD-004, or palbociclib at indicated concentrations for 16 hours.
Calu-1 cells were treated with CPD-031 at indicated concentrations for 16 hours.
Calu-1 cells were treated with CPD-002 or CPD-031 at 500 nM or 100 nM, respectively for indicated period of time.
Calu-1 cells were pre-treated with DMSO, 20 μM MG-132 (MG), 5 μM MLN4924 (MLN) or 1 μM TAK-243 (TAK) for 2 hours, and subsequently incubated with 500 nM CPD-002, 500 nM CPD-004, or 100 nM CPD-031 for another 4 h or 2 h prior to immunoblotting (FIG. 5A-5B).
Calu-1 cells were treated with a dose range of negative control compounds CPD-042 or CPD-049 for 16 hours (FIG. 6A-6B).
Calu-1 cells were treated with reference compounds CP-10 or BSJ-03-123 at indicated concentrations for 8 hours.
(§3) Cultured cells were washed with cold PBS once and lysed in cold RIPA buffer supplemented with protease inhibitors and phosphatase inhibitors (Beyotime Biotechnology). The solutions were then incubated at 4° C. for 30 min with gentle agitation to fully lysed cells. Cell lysates were centrifuged at 13,000 rpm for 10 min at 4° C. and pellets were discarded. Total protein concentrations in the lysates were determined following BCA assays (Beyotime Biotechnology). Cell lysates were mixed with Laemmli loading buffer and heated at 99° C. for 5 min. Proteins were resolved on SDS-PAGE and visualized using Western ECL Substrate kits on a ChemiDoc MP Imaging system (Bio-Rad). Protein bands were quantitated using the Image Lab software provided by Bio-Rad.

[8] = target: T1, DDB1; assay: Surface plasmon resonance (SPR) binding of heterobifunctional compounds to DDB1; conditions: purified DDB1ΔBPB immobilized on CM5 chip, multi-cycle kinetic format, steady state model, read-out: binding affinities (Kd) to DDB1
Procedure: To determine whether the addition of linkers and target binders to the DDB1 ligands affected the binding to DDB1 E3 ligase, the binding affinities of heterobifunctional compounds to DDB1 was evaluated using a surface plasmon resonance (SPR) assay. Purified DDB1ΔBPB proteins were immobilized on a CM5 sensor chip and a dose range of compound solutions were injected in multi-cycle kinetic format. Data was fit to steady state model and gave equivalent dissociation constants (Kd).

[9] = system: cyclin D1, cyclin D2, cyclin D3, CDK4 and CDK6; assay: Immunoblotting of cyclin D and CDK4/6 protein levels in BT-549 cells; format: cell-based; conditions: indicated concentrations, 16 hours
Procedure: as §2, §3

[10] = system: Rb phosphorylation, cleaved caspase-3; assay: Immunoblotting of downstream Rb phosphorylation and cleaved caspase-3 in Calu-1 or BT-549 cells; format: cell-based; conditions: 16 hours
Procedure: as §2, §3

| Structure (SMILES) | decrease of degradation potency versus corresponding active compound [1] | decrease of cellular anti-proliferation activity versus corresponding active compound [2] | Kd [3] | CyclinD1 Degradation (200 nM) [4] | inhibition at 0.2 µM [5] | cell viability (cellular anti-proliferation activity) [6] | degradation potencies compared with corresponding active heterobifunctional compounds ([7]; 16 hours) | Kd [8] | reduction of cyclin D1, cyclin D2, and cyclin D3 protein levels ([1]; immunoblot, Calu-1 / BT-549 cells, dose range) | cyclin D degradation after pretreatment with MG-132, MLN4924 or TAK-243 ([7]; 2 hours pre-treatment, then 500 nM CPD-002, 500 nM CPD-004 or 100 nM CPD-031 for 4 h or 2 h) | cyclin D1, cyclin D2, cyclin D3, CDK4 and CDK6 protein levels ([7]; indicated concentrations, 16 hours) | cyclin D1, cyclin D2, cyclin D3, CDK4 and CDK6 protein levels [9] | downstream Rb phosphorylation and cleaved caspase-3 [10] |
| --- | --- | --- | --- | --- | --- | --- | --- | --- | --- | --- | --- | --- | --- |
| CC(=O)c1c(C)c2cnc(N(C)c3ccc(N4CCN(CC(=O)NCCOCCOCCOCCOCCOCCNc5ccc(C(=O)Nc6ncc(C)s6)c(C)c5)CC4)cn3)nc2n(C2CCCC2)c1=O [CPD-042, 4-((1-(4-(6-((6-Acetyl-8-cyclopentyl-5-methyl-7-oxo-7,8-dihydropyrido[2,3-d]pyrimidin-2-yl)(methyl)amino)pyridin-3-yl)piperazin-1-yl)-2-oxo-6,9,12,15,18-pentaoxa-3-azaicosan-20-yl)amino)-2-methyl-N-(5-methylthiazol-2-yl)benzamide] | > 10 fold | > 20 fold | < 20 µM | D (protein percentage degradation <30%) | < 30% | much weaker cellular anti-proliferation activities | much weaker degradation potencies | – | – | – | – | – | – |
| CC(=O)c1c(C)c2cnc(N(C)c3ccc(N4CCN(CC(=O)NCCOCCOCCOCCOCCOCCNc5ccc(C(=O)Nc6nc(C)c(C)s6)c(C)c5)CC4)cn3)nc2n(C2CCCC2)c1=O [CPD-049, 4-((1-(4-(6-((6-Acetyl-8-cyclopentyl-5-methyl-7-oxo-7,8-dihydropyrido[2,3-d]pyrimidin-2-yl)(methyl)amino)pyridin-3-yl)piperazin-1-yl)-2-oxo-6,9,12,15,18-pentaoxa-3-azaicosan-20-yl)amino)-N-(4,5-dimethylthiazol-2-yl)-2-methylbenzamide] | > 100 fold | > 100 fold | 20 to 50 µM | D (protein percentage degradation <30%) | < 30% | much weaker cellular anti-proliferation activities | much weaker degradation potencies | – | – | – | – | – | – |
| CC(=O)c1c(C)c2cnc(Nc3ccc(N4CCN(CC(=O)NCCOCCOCCOCCOCCOCCNc5ccc(C(=O)Nc6nccs6)c(C)c5)CC4)cn3)nc2n(C2CCCC2)c1=O [CPD-004, 4-((1-(4-(6-((6-Acetyl-8-cyclopentyl-5-methyl-7-oxo-7,8-dihydropyrido[2,3-d]pyrimidin-2-yl)amino)pyridin-3-yl)piperazin-1-yl)-2-oxo-6,9,12,15,18-pentaoxa-3-azaicosan-20-yl)amino)-2-methyl-N-(thiazol-2-yl)benzamide] | – | – | < 20 µM | A (protein percentage degradation >=80%) | 30 to 50% | – | – | 9.4 µM | particularly effective | diminished the cyclin D degradation effect | reduced cyclin D1, cyclin D2, cyclin D3, CDK4 and CDK6 protein levels in a concentration-dependent manner | reduced cyclin D1, cyclin D2, cyclin D3, CDK4 and CDK6 protein levels in a concentration-dependent manner | inhibited downstream Rb phosphorylation and induced cleaved caspase-3 in a concentration-dependent manner |

Reference: patent US20250235543A1, “MODIFIED PROTEINS AND PROTEIN DEGRADERS” (Cullgen (Shanghai), Inc., priority 2021, published 2025)
